According to ChEMBL document CHEMBL4152201, “Novel sarsasapogenin-triazolyl hybrids as potential anti-Alzheimer's agents: Design, synthesis and biological evaluation” (Eur J Med Chem, 2018):
Blank lines part the entries; values can stand above or below the molecule they belong to. The source made the active and inactive calls. The rule behind the calls is not given here.

Experiments:
[1] = molecular target: T1, Amyloid-beta precursor protein (Homo sapiens, UniProt P05067); test: Inhibition of amyloid beta (1 to 42) (unknown origin) self-aggregation at 20 uM after 24 hrs by thioflavin-T fluorescence assay relative to control
T1 sequence (P05067 whole entry): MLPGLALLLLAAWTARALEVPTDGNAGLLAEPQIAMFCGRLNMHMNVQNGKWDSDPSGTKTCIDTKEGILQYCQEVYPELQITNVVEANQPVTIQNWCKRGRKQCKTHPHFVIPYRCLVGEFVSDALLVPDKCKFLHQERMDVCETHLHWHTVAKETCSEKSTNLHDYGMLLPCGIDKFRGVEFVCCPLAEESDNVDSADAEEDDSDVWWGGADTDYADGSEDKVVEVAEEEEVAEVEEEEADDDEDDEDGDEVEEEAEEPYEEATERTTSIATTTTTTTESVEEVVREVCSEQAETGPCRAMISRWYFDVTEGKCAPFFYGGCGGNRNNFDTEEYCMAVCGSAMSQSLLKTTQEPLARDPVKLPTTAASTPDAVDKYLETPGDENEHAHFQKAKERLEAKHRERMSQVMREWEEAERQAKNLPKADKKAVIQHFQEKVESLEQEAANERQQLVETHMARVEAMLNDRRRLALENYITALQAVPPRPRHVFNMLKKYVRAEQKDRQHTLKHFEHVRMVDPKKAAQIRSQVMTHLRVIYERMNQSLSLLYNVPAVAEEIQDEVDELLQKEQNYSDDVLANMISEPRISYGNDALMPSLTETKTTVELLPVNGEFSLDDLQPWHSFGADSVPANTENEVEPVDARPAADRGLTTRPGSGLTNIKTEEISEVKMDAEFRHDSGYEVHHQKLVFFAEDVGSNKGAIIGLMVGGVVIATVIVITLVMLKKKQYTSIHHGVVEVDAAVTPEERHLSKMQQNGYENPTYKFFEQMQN

Mus musculus [2] = test: Cognitive enhancing effect in Kunming mouse model of amyloid beta (1 to 42) oligomer-induced memory impairment assessed as […] in spontaneous alternation behaviors at 1.3 mg/kg/day, po starting from day 1 of amyloid beta (1 to 42) oligomer treatment and measured on day 7 by Y-maze test; format: functional, organism-based
Mus musculus [3] = test: Neuroprotective activity amyloid beta (1 to 42) oligomer-induced memory impaired Kunming mouse assessed as reduction in apoptotic cells in CA1 and CA3 hipocampal neurons at 1.3 mg/kg, po starting from day 1 of amyloid beta (1 to 42) oligomer treatment and measured on day 7 by TUNEL assay; format: functional, organism-based
Mus musculus [4] = test: (§1) Neuroprotective activity in Kunming mouse model of amyloid beta (1 to 42) oligomer-induced memory impairment assessed as reduction in neuronal degeneration by measuring reduction in degenerative changes in nucleus of CA1 and CA3 region at 1.3 mg/kg, po starting from day 1 of amyloid beta (1 to 42) oligomer treatment and measured on day 7 by TUNEL assay; format: functional, organism-based
Mus musculus [5] = test: (§2) Neuroprotective activity in Kunming mouse model of amyloid beta (1 to 42) oligomer-induced memory impairment assessed as reduction in neural degeneration in CA1 region at 1.3 mg/kg, po starting from day 1 of amyloid beta (1 to 42) oligomer treatment and measured on day 7 by Nissl's staining-based assay; format: functional, organism-based
Mus musculus [6] = test: Cognitive enhancing effect in Kunming mouse model of amyloid beta (1 to 42) oligomer-induced memory impairment assessed as induction of fewer entries into dark compartment at 1.3 mg/kg, po starting from day 1 of amyloid beta (1 to 42) oligomer treatment and measured on day 7 by passive avoidance test; format: functional, organism-based
Mus musculus [7] = test: (§3) Memory enhancing effect in Kunming mouse model of amyloid beta (1 to 42) oligomer-induced memory impairment assessed as increase in preferential index in retention session of 1 hr at 1.3 mg/kg/day, po starting from day 1 of amyloid beta (1 to 42) oligomer treatment and measured on day 7 by novel object recognition test; format: functional, organism-based
Mus musculus [8] = test: as §1, with “measuring clear and intact neurons” for “measuring reduction”, “in” for “in degenerative changes in nucleus of”; format: functional, organism-based
Mus musculus [9] = test: (§4) Cognitive enhancing effect in Kunming mouse model of amyloid beta (1 to 42) oligomer-induced memory impairment increase in time spent in target quadrant by measuring increase in number of platform crossings at 1.3 mg/kg/day, po starting from day 1 of amyloid beta (1 to 42) oligomer treatment and measured on day 12 by Morris water maze test; format: functional, organism-based
Mus musculus [10] = test: Cognitive enhancing effect in Kunming mouse model of amyloid beta (1 to 42) oligomer-induced memory impairment assessed as longer escape latency at 1.3 mg/kg, po starting from day 1 of amyloid beta (1 to 42) oligomer treatment and measured on day 7 by passive avoidance test; format: functional, organism-based
Mus musculus [11] = test: Toxicity in Kunming mouse model of amyloid beta (1 to 42) oligomer-induced memory impairment assessed as effect on number of arm entries at 1.3 mg/kg/day, po starting from day 1 of amyloid beta (1 to 42) oligomer treatment and measured on day 7 by Y-maze test; format: organism-based; conditions: in vivo
SH-SY5Y [12] = test: Neuroprotective activity against H2O2-induced oxidative stress in human SH-SY5Y cells assessed as cell viability at 50 uM pre-incubated for 1 hr followed by H2O2 addition and measured after 4 hrs by MTT assay relative to control; format: functional; conditions: read-out: Activity
SH-SY5Y [13] = test: Neuroprotective activity against H2O2-induced oxidative stress in human SH-SY5Y cells assessed as cell viability at 25 uM pre-incubated for 1 hr followed by H2O2 addition and measured after 4 hrs by MTT assay relative to control; format: functional; conditions: read-out: Activity
SH-SY5Y [14] = test: Neuroprotective activity against H2O2-induced oxidative stress in human SH-SY5Y cells assessed as cell viability at 12.5 uM pre-incubated for 1 hr followed by H2O2 addition and measured after 4 hrs by MTT assay relative to control; format: functional; conditions: read-out: Activity
Mus musculus [15] = test: Neuroprotective activity amyloid beta (1 to 42) oligomer-induced memory impaired Kunming mouse assessed as reduction in apoptotic cells in CA1 and CA3 hipocampal neurons at 35 mg/kg, po starting from day 1 of amyloid beta (1 to 42) oligomer treatment and measured on day 7 by TUNEL assay; format: functional, organism-based
[16] = molecular target: T1, Amyloid-beta precursor protein; test: Potency index, ratio of IC50 for curcumin to IC50 for test compound for inhibition of amyloid beta (1 to 42) (unknown origin) self-aggregation after 24 hrs by thioflavin-T fluorescence assay
Mus musculus [17] = test: as §1, with “measuring clear and intact neurons” for “measuring reduction”, “in” for “in degenerative changes in nucleus of”, “at 17.5 to 35” for “at 1.3”; format: functional, organism-based
Mus musculus [18] = test: Cognitive enhancing effect in Kunming mouse model of amyloid beta (1 to 42) oligomer-induced memory impairment assessed as longer escape latency at 35 mg/kg, po starting from day 1 of amyloid beta (1 to 42) oligomer treatment and measured on day 7 by passive avoidance test; format: functional, organism-based
Mus musculus [19] = test: as §3, with “17.5” for “1.3”; format: functional, organism-based
Mus musculus [20] = test: Cognitive enhancing effect in Kunming mouse model of amyloid beta (1 to 42) oligomer-induced memory impairment assessed as induction of fewer entries into dark compartment at 35 mg/kg, po starting from day 1 of amyloid beta (1 to 42) oligomer treatment and measured on day 7 by passive avoidance test; format: functional, organism-based
Mus musculus [21] = test: as §4, with “17.5 to 35” for “1.3”; format: functional, organism-based
Mus musculus [22] = test: Toxicity in Kunming mouse model of amyloid beta (1 to 42) oligomer-induced memory impairment assessed as effect on number of arm entries at 17.5 to 35 mg/kg/day, po starting from day 1 of amyloid beta (1 to 42) oligomer treatment and measured on day 7 by Y-maze test; format: organism-based; conditions: in vivo
Mus musculus [23] = test: Cognitive enhancing effect in Kunming mouse model of amyloid beta (1 to 42) oligomer-induced memory impairment assessed as […] in spontaneous alternation behaviors at 17.5 to 35 mg/kg/day, po starting from day 1 of amyloid beta (1 to 42) oligomer treatment and measured on day 7 by Y-maze test; format: functional, organism-based
[24] = molecular target: T1, Amyloid-beta precursor protein; test: Inhibition of amyloid beta (1 to 42) (unknown origin) self-aggregation after 24 hrs by thioflavin-T fluorescence assay
Mus musculus [25] = test: as §2, with “17.5 to 35” for “1.3”; format: functional, organism-based
Mus musculus [26] = test: as §1, with “17.5 to 35” for “1.3”; format: functional, organism-based
SH-SY5Y [27] = test: Cytotoxicity against human SH-SY5Y cells at 50 uM after 24 hrs by MTT assay; format: cell-based

inhibition [1]: 11.8%
Compound: CCn1cc(CNC(=O)[C@@H](C)CC[C@H]2O[C@H]3C[C@H]4[C@@H]5CC[C@@H]6C[C@@H](OCc7ccccc7)CC[C@]6(C)[C@H]5CC[C@]4(C)[C@H]3[C@@H]2C)nn1

Compound: COc1cc2c(cc1OC)C(=O)C(CC1CCN(Cc3ccccc3)CC1)C2.Cl (stereo unspecified) [DONEPEZIL HYDROCHLORIDE]
Activity (Mus musculus [2]): Active
Activity (Mus musculus [3]): Active
Activity (Mus musculus [4]): Active
Activity (Mus musculus [5]): Active
Activity (Mus musculus [6]): Active
Activity (Mus musculus [7]): Active
Activity (Mus musculus [8]): Active
Activity (Mus musculus [9]): Active
Activity (Mus musculus [10]): Active
Activity (Mus musculus [11]): Non-Toxic

Compound: Cc1c(C)c2c(c(C)c1O)CCC(C)(C(=O)O)O2 (stereo unspecified) [TROLOX]
viability at 50 µM (SH-SY5Y [12]): 78.4%
viability at 25 µM (SH-SY5Y [13]): 80.1%
viability at 12.5 µM (SH-SY5Y [14]): 78.4%

Ratio IC50 [16]: 2.6
IC50 [24]: 5.84 µM
inhibition [1]: 84.7%
Compound: COc1ccc(Cn2cc(CNC(=O)[C@@H](C)CC[C@H]3O[C@H]4C[C@H]5[C@@H]6CC[C@@H]7C[C@@H](OCc8ccccc8)CC[C@]7(C)[C@H]6CC[C@]5(C)[C@H]4[C@@H]3C)nn2)cc1
Activity (Mus musculus [15]): Active
viability at 50 µM (SH-SY5Y [12]): 63.1%
Activity (Mus musculus [17]): Active
Activity (Mus musculus [18]): Active
Activity (Mus musculus [19]): Active
viability at 25 µM (SH-SY5Y [13]): 80.9%
Activity (Mus musculus [20]): Active
Activity (Mus musculus [21]): Active
Activity (Mus musculus [22]): Non-Toxic
viability at 12.5 µM (SH-SY5Y [14]): 71.8%
Activity (Mus musculus [23]): Active
Activity (Mus musculus [25]): Active
Activity (Mus musculus [26]): Active
Activity (SH-SY5Y [27]): Non-Toxic

inhibition [1]: 37.5%
Compound: C[C@H]1[C@H]2[C@H](C[C@H]3[C@@H]4CC[C@@H]5C[C@@H](OCc6ccccc6)CC[C@]5(C)[C@H]4CC[C@]23C)O[C@@H]1CC[C@H](C)C(=O)NCc1cn(Cc2ccc(F)cc2)nn1

inhibition [1]: 71.2%
Compound: Cc1ccc(Cn2cc(CNC(=O)[C@@H](C)CC[C@H]3O[C@H]4C[C@H]5[C@@H]6CC[C@@H]7C[C@@H](OCc8ccccc8)CC[C@]7(C)[C@H]6CC[C@]5(C)[C@H]4[C@@H]3C)nn2)cc1

inhibition [1]: 64.2%
Compound: C[C@H]1[C@H]2[C@H](C[C@H]3[C@@H]4CC[C@@H]5C[C@@H](OCc6ccccc6)CC[C@]5(C)[C@H]4CC[C@]23C)O[C@@H]1CC[C@H](C)C(=O)NCc1cn(Cc2ccccc2)nn1

inhibition [1]: 31.5%
Compound: COc1cc(Cn2cc(CNC(=O)[C@@H](C)CC[C@H]3O[C@H]4C[C@H]5[C@@H]6CC[C@@H]7C[C@@H](OCc8ccccc8)CC[C@]7(C)[C@H]6CC[C@]5(C)[C@H]4[C@@H]3C)nn2)cc(OC)c1

inhibition [1]: 52.6%
Compound: CC(C)n1cc(CNC(=O)[C@@H](C)CC[C@H]2O[C@H]3C[C@H]4[C@@H]5CC[C@@H]6C[C@@H](OCc7ccccc7)CC[C@]6(C)[C@H]5CC[C@]4(C)[C@H]3[C@@H]2C)nn1
